One assay deals with T1, CALCR (Homo sapiens, UniProt P30988).
T1 construct: host or cells: cells expressing CALCR (unnamed vendor)
T1 sequence (P30988 25-474): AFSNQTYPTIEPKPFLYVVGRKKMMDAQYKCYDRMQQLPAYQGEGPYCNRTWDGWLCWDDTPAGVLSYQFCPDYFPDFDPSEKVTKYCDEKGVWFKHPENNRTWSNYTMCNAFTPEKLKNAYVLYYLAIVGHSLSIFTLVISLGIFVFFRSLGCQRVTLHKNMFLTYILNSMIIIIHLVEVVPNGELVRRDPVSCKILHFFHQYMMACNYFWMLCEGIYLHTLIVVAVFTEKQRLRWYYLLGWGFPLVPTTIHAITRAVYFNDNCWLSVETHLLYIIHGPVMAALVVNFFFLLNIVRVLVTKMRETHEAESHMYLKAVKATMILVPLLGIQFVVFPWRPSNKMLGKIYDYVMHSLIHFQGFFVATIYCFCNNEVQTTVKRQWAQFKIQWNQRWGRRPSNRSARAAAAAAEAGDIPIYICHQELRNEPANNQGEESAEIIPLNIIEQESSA
Put plainly: class B GPCR panel cAMP assay, CALCR. Type of assay: cell-based. As for the experimental part: (§1) The assays were performed according to the vendor's standard operating procedures with a positive control included for each receptor tested.

The next assay concerns the target T2, PTHR1 (Homo sapiens, UniProt Q03431).
T2 construct: host or cells: cells expressing PTHR1 (unnamed vendor)
T2 sequence (Q03431 27-593): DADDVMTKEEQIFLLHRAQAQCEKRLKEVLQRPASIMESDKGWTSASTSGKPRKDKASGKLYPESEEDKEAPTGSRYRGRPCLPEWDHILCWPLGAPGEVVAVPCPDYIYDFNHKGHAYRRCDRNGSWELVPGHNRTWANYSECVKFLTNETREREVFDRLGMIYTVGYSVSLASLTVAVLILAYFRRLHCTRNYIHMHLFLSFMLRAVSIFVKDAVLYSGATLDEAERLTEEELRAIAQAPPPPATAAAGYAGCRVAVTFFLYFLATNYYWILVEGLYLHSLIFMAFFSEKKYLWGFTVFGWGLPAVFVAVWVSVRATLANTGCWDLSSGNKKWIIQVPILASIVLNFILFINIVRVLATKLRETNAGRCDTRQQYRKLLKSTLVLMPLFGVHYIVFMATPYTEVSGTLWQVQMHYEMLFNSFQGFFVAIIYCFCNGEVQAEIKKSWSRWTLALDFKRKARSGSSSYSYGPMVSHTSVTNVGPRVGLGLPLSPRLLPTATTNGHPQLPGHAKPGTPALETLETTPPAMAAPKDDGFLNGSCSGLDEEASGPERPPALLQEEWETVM
Put plainly: class B GPCR panel cAMP assay, PTHR1. Type of assay: cell-based. To be noted: read-out: Max response. As for the experimental part:
as §1

`CC(C)C[C@H](NC(=O)[C@H](CCCCN)NC(=O)CNC(=O)[C@H](CC(C)C)NC(=O)[C@@H](NC(=O)[C@@H]1CSSC[C@H](N)C(=O)N[C@@H](CO)C(=O)N[C@@H](CC(N)=O)C(=O)N[C@@H](CC(C)C)C(=O)N[C@@H](CO)C(=O)N[C@@H]([C@@H](C)O)C(=O)N1)C(C)C)C(=O)N[C@@H](CO)C(=O)N[C@@H](CCC(N)=O)C(=O)N[C@@H](CCC(=O)O)C(=O)N[C@@H](CC(C)C)C(=O)N[C@@H](Cc1c[nH]cn1)C(=O)N[C@@H](CCCCN)C(=O)N[C@@H](CC(C)C)C(=O)N[C@@H](CCC(N)=O)C(=O)N[C@H](C(=O)N[C@@H](Cc1ccc(O)cc1)C(=O)N1CCC[C@H]1C(=O)N[C@@H](CCCNC(=N)N)C(=O)N[C@H](C(=O)N[C@@H](CC(N)=O)C(=O)N[C@H](C(=O)NCC(=O)N[C@@H](CO)C(=O)NCC(=O)N[C@H](C(=O)N1CCC[C@H]1C(N)=O)[C@@H](C)O)[C@@H](C)O)[C@@H](C)O)[C@@H](C)O` [Calcitonin]: on CALCR (CALCR cAMP assay), the “Curve Bottom” value is recorded as −6.2187, the “Curve Top” value is on record as 105 and the Hill is listed as 1.5254. The Emax at CALCR (read-out: Max response) is 101%.
In the case of `CC[C@H](C)[C@H](NC(=O)[C@H](CCC(=O)O)NC(=O)[C@H](CO)NC(=O)[C@@H](NC(=O)[C@@H](N)CO)C(C)C)C(=O)N[C@@H](CCC(N)=O)C(=O)N[C@@H](CC(C)C)C(=O)N[C@@H](CCSC)C(=O)N[C@@H](Cc1cnc[nH]1)C(=O)N[C@@H](CC(N)=O)C(=O)N[C@@H](CC(C)C)C(=O)NCC(=O)N[C@@H](CCCCN)C(=O)N[C@@H](Cc1cnc[nH]1)C(=O)N[C@@H](CC(C)C)C(=O)N[C@@H](CC(N)=O)C(=O)N[C@@H](CO)C(=O)N[C@@H](CCSC)C(=O)N[C@@H](CCC(=O)O)C(=O)N[C@@H](CCCNC(=N)N)C(=O)N[C@H](C(=O)N[C@@H](CCC(=O)O)C(=O)N[C@@H](Cc1c[nH]c2ccccc12)C(=O)N[C@@H](CC(C)C)C(=O)N[C@@H](CCCNC(=N)N)C(=O)N[C@@H](CCCCN)C(=O)N[C@@H](CCCCN)C(=O)N[C@@H](CC(C)C)C(=O)N[C@@H](CCC(N)=O)C(=O)N[C@@H](CC(=O)O)C(=O)N[C@H](C(=O)N[C@@H](Cc1cnc[nH]1)C(=O)N[C@@H](CC(N)=O)C(=O)N[C@@H](Cc1ccccc1)C(=O)O)C(C)C)C(C)C` [PTH(1-34)], on PTHR1, the Emax came to 93.6%.

Source of the values: US10428134B2, “Immunoglobulins and uses thereof” (JANSSEN PHARMACEUTICA NV, priority 2016, dated 2019).
